The test system of the assay is sheep vascular endothelial cell (SVEC). As to the kind of experiment: SVEC proliferation/cytotoxicity, CellTiterBlue assay. In kind it is cell-based. Particulars: without growth factors. The procedure: The cell media used was the EGM-2 Bullet Kit (CC-3162) from Lonza. It consists of 500 mL of basal media, antibiotics GA-1000 (Gentamicin, Amphotecerin-B), FBS (Fetal Bovine Serum) 10 mL, and a kit of growth factors (VEGF, hFGF-B, R3-IGF-1, Ascorbic Acid, Heparin). • In vitro viability assay:Live/dead assay • In vitro cytotoxicity(biocompatibility)/proliferation assay: CellTiterBlue® assay • This in vitro test was to find the optimal linoleic acid content in the material. Cells were cultured in different concentration of LA. […]
The fluorescence of live cells were measured at three time points:1, 3, 5 days. […] Fluorescence was recorded triple times for each well at 560 nm/590 nm excitation/emission.
In general terms: Alamar Blue is a resazurin reagent that responds to reducing activity.

Drawing on patent US20180051132A1, “ELASTOMER COUPLED WITH BIOACTIVE FATTY ACID” (University of Pittsburgh - Of the Commonwealth System of …, priority 2016, published 2018), this text covers SVEC proliferation for one compound.

Regarding `CCCCC/C=C\C/C=C\CCCCCCCC(=O)O` [LA, linoleic acid], the SVEC proliferation result was “higher proliferation than the cells in the positive control medium” (36 nM LA) and “higher proliferation than the cells in the positive control medium” (360 nM LA).
